According to ChEMBL document CHEMBL1201862, “PubChem BioAssay data set” (2004):
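All cell lines were grown in 96-well plates and treated with compound for 48 hours. GI50 = concentration required for 50% inhibition of growth.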 Calls of active or inactive are those of the source. Rule as the data show it: active = GI50 up to about 1.1 µM and inactive = higher.

Key:
Test in all cases: NCI-60 cell line screen, 48 h
A498 = test system: A498
A549 = test system: A549
ACHN = test system: ACHN
CAKI-1 = test system: CAKI-1
COLO 205 = test system: COLO 205
HOP-62 = test system: HOP-62
HOP-92 = test system: HOP-92
IGROV-1 = test system: IGROV-1
LOX IMVI = test system: LOX IMVI
M14 = test system: M14
NCI-H226 = test system: NCI-H226
NCI-H23 = test system: NCI-H23
NCI-H522 = test system: NCI-H522
OVCAR-8 = test system: OVCAR-8
RPMI-8226 = test system: RPMI-8226
RXF 393 = test system: RXF 393
SF-539 = test system: SF-539
SK-MEL-5 = test system: SK-MEL-5
SW-620 = test system: SW-620
U-251 = test system: U-251

`CC(Oc1ccc(Cl)cc1Cl)C(=O)NN1C(=O)CC(=O)NC1=S` (stereo not given) was tested. Which GI50 (A498) did it give?
The GI50 was 90.8 µM (inactive).

And the GI50 (A549)?
The GI50 was > 100 µM (inactive).

What about the GI50 (ACHN) of the same compound?
The GI50 was 88.1 µM (inactive).

What about the GI50 (CAKI-1) of the same compound?
Its GI50 is 82 µM (inactive).

And the GI50 (COLO 205)?
Its GI50 is > 100 µM (inactive).

And the GI50 (HOP-62)?
Its GI50 is > 100 µM (inactive).

And the GI50 (HOP-92)?
The GI50 was 39.6 µM (inactive).

And the GI50 (IGROV-1)?
The GI50 was > 100 µM (inactive).

What about the GI50 (LOX IMVI) of the same compound?
The GI50 was 80 µM (inactive).

And the GI50 (M14)?
Its GI50 is > 100 µM (inactive).

And the GI50 (NCI-H226)?
The GI50 was 82.8 µM (inactive).

What about the GI50 (NCI-H23) of the same compound?
Its GI50 is > 100 µM (inactive).

And the GI50 (NCI-H522)?
Its GI50 is > 100 µM (inactive).

What about the GI50 (OVCAR-8) of the same compound?
Its GI50 is > 100 µM (inactive).

And the GI50 (RPMI-8226)?
The GI50 was 46 µM (inactive).

What about the GI50 (RXF 393) of the same compound?
Its GI50 is > 100 µM (inactive).

And the GI50 (SF-539)?
Its GI50 is > 100 µM (inactive).

And the GI50 (SK-MEL-5)?
Its GI50 is > 100 µM (inactive).

What about the GI50 (SW-620) of the same compound?
The GI50 was > 100 µM (inactive).

And the GI50 (U-251)?
Its GI50 is > 100 µM (inactive).

With `CC(C)(C)OC(=O)/C=C/C(=O)O/C=C/[N+](=O)[O-]` as the compound, how does the GI50 (A498) read?
The GI50 was > 100 µM (inactive).

And the GI50 (A549)?
Its GI50 is > 100 µM (inactive).

And the GI50 (ACHN)?
Its GI50 is > 100 µM (inactive).

And the GI50 (CAKI-1)?
The GI50 was > 100 µM (inactive).

What about the GI50 (COLO 205) of the same compound?
The GI50 was > 100 µM (inactive).

What about the GI50 (HOP-62) of the same compound?
Its GI50 is > 100 µM (inactive).

And the GI50 (HOP-92)?
Its GI50 is > 100 µM (inactive).

And the GI50 (IGROV-1)?
The GI50 was > 100 µM (inactive).

And the GI50 (LOX IMVI)?
The GI50 was > 100 µM (inactive).

What about the GI50 (M14) of the same compound?
The GI50 was > 100 µM (inactive).

And the GI50 (NCI-H226)?
Its GI50 is > 100 µM (inactive).

And the GI50 (NCI-H23)?
Its GI50 is > 100 µM (inactive).

What about the GI50 (NCI-H522) of the same compound?
Its GI50 is > 100 µM (inactive).

And the GI50 (OVCAR-8)?
The GI50 was > 100 µM (inactive).

And the GI50 (RPMI-8226)?
The GI50 was > 100 µM (inactive).

And the GI50 (RXF 393)?
The GI50 was > 100 µM (inactive).

And the GI50 (SF-539)?
Its GI50 is > 100 µM (inactive).

And the GI50 (SK-MEL-5)?
Its GI50 is > 100 µM (inactive).

And the GI50 (SW-620)?
Its GI50 is > 100 µM (inactive).

And the GI50 (U-251)?
Its GI50 is > 100 µM (inactive).

How did the GI50 (A498) turn out when `C=CC1=C(C)c2cc3[nH]c(c4c5nc(cc6[nH]c(cc1n2)c(C)c6CC)C(C)=C5C(=O)[C@@H]4C(=O)OC)[C@@H](CCC(=O)O)[C@@H]3C` was run?
Its GI50 is 2.55 µM (inactive).

What about the GI50 (A549) of the same compound?
Its GI50 is 3.95 µM (inactive).

And the GI50 (ACHN)?
The GI50 was 2.27 µM (inactive).

What about the GI50 (CAKI-1) of the same compound?
The GI50 was 9.51 µM (inactive).

What about the GI50 (COLO 205) of the same compound?
Its GI50 is 4.28 µM (inactive).

And the GI50 (HOP-62)?
The GI50 was 8.95 µM (inactive).

What about the GI50 (HOP-92) of the same compound?
The GI50 was 1.63 µM (inactive).

And the GI50 (IGROV-1)?
Its GI50 is 7.24 µM (inactive).

What about the GI50 (LOX IMVI) of the same compound?
The GI50 was 6.22 µM (inactive).

What about the GI50 (M14) of the same compound?
The GI50 was 3.66 µM (inactive).

And the GI50 (NCI-H226)?
The GI50 was 6.01 µM (inactive).

And the GI50 (NCI-H23)?
The GI50 was 2.21 µM (inactive).

And the GI50 (NCI-H522)?
Its GI50 is 7.57 µM (inactive).

And the GI50 (OVCAR-8)?
The GI50 was 3.52 µM (inactive).

And the GI50 (RPMI-8226)?
The GI50 was 2 µM (inactive).

And the GI50 (RXF 393)?
Its GI50 is 1.29 µM (inactive).

What about the GI50 (SF-539) of the same compound?
The GI50 was 1.86 µM (inactive).

And the GI50 (SK-MEL-5)?
Its GI50 is 1.42 µM (inactive).

What about the GI50 (SW-620) of the same compound?
Its GI50 is 2.5 µM (inactive).

What about the GI50 (U-251) of the same compound?
Its GI50 is 3.06 µM (inactive).

Which GI50 (A498) does the source give for `CN(C)CN(C)c1nc(N(C)C)nc(N(C)CN(C)C)n1` here?
Its GI50 is > 100 µM (inactive).

And the GI50 (A549)?
Its GI50 is > 100 µM (inactive).

What about the GI50 (ACHN) of the same compound?
The GI50 was 45.4 µM (inactive).

What about the GI50 (CAKI-1) of the same compound?
Its GI50 is > 100 µM (inactive).

And the GI50 (COLO 205)?
The GI50 was 27.8 µM (inactive).

What about the GI50 (HOP-62) of the same compound?
The GI50 was > 100 µM (inactive).

And the GI50 (HOP-92)?
Its GI50 is 63 µM (inactive).

And the GI50 (IGROV-1)?
The GI50 was > 100 µM (inactive).

What about the GI50 (LOX IMVI) of the same compound?
Its GI50 is 22.9 µM (inactive).

And the GI50 (M14)?
The GI50 was 36.7 µM (inactive).

And the GI50 (NCI-H226)?
The GI50 was > 100 µM (inactive).

And the GI50 (NCI-H23)?
Its GI50 is 27.2 µM (inactive).

What about the GI50 (NCI-H522) of the same compound?
The GI50 was > 100 µM (inactive).

And the GI50 (OVCAR-8)?
The GI50 was 27.9 µM (inactive).

And the GI50 (RPMI-8226)?
The GI50 was 27.2 µM (inactive).

What about the GI50 (RXF 393) of the same compound?
The GI50 was 19.5 µM (inactive).

What about the GI50 (SF-539) of the same compound?
The GI50 was 50.4 µM (inactive).

And the GI50 (SK-MEL-5)?
The GI50 was 51.1 µM (inactive).

And the GI50 (SW-620)?
Its GI50 is 23.9 µM (inactive).

And the GI50 (U-251)?
Its GI50 is > 100 µM (inactive).

`COc1cc2c(cc1OCCCC(=O)Nc1cc(C(=O)Nc3cc(C(=O)Nc4cc(C(=O)NCCCN(C)C)n(C)n4)n(C)n3)n(C)n1)N=CC1CCCN1C2=O` (stereo not given) was tested. Which GI50 (A498) did it give?
Its GI50 is 23 µM (inactive).

And the GI50 (A549)?
The GI50 was 55.2 µM (inactive).

And the GI50 (ACHN)?
Its GI50 is 13.2 µM (inactive).

What about the GI50 (CAKI-1) of the same compound?
Its GI50 is 18.2 µM (inactive).

And the GI50 (COLO 205)?
The GI50 was 3.53 µM (inactive).

What about the GI50 (HOP-62) of the same compound?
The GI50 was 45.5 µM (inactive).

What about the GI50 (HOP-92) of the same compound?
The GI50 was 4.68 µM (inactive).

What about the GI50 (IGROV-1) of the same compound?
The GI50 was 2.96 µM (inactive).

What about the GI50 (LOX IMVI) of the same compound?
Its GI50 is 3.07 µM (inactive).

What about the GI50 (M14) of the same compound?
The GI50 was 28 µM (inactive).

And the GI50 (NCI-H226)?
Its GI50 is 28.4 µM (inactive).

What about the GI50 (NCI-H23) of the same compound?
The GI50 was 26.5 µM (inactive).

What about the GI50 (NCI-H522) of the same compound?
The GI50 was 1.69 µM (inactive).

What about the GI50 (OVCAR-8) of the same compound?
The GI50 was 32 µM (inactive).

And the GI50 (RPMI-8226)?
Its GI50 is 5.74 µM (inactive).

And the GI50 (RXF 393)?
The GI50 was 22.4 µM (inactive).

And the GI50 (SF-539)?
The GI50 was 26.2 µM (inactive).

What about the GI50 (SK-MEL-5) of the same compound?
The GI50 was 19.5 µM (inactive).

And the GI50 (SW-620)?
Its GI50 is 5.21 µM (inactive).

And the GI50 (U-251)?
The GI50 was 9.77 µM (inactive).

Which results are given for `O=C(O)c1nc(-c2ccccn2)c(-c2ccccn2)nc1C(=O)O`?
GI50 (A498): 1.61 µM (inactive); GI50 (A549): 1.12 µM (inactive); GI50 (ACHN): 0.678 µM (active); GI50 (CAKI-1): 2.92 µM (inactive); GI50 (COLO 205): 2.47 µM (inactive); GI50 (HOP-62): 2.15 µM (inactive); GI50 (HOP-92): 9.51 µM (inactive); GI50 (IGROV-1): 3.5 µM (inactive); GI50 (LOX IMVI): 2.07 µM (inactive); GI50 (M14): 1.42 µM (inactive); GI50 (NCI-H226): 1.7 µM (inactive); GI50 (NCI-H23): 5.3 µM (inactive); GI50 (NCI-H522): 4.28 µM (inactive); GI50 (OVCAR-8): 3.44 µM (inactive); GI50 (RPMI-8226): 2.86 µM (inactive); GI50 (RXF 393): 2.31 µM (inactive); GI50 (SF-539): 3.38 µM (inactive); GI50 (SK-MEL-5): 1.28 µM (inactive); GI50 (SW-620): 3.26 µM (inactive); GI50 (U-251): 1.77 µM (inactive)
